Counter-ions that a name gives are not always drawn.

System in the first data set: not given
Test: not given
Conditions: not given
`CC(C)c1cc(C(C)C)c(CSC(=N)N)cc1CSC(=N)N` (as salt: hydrobromid) [Example 3.1, (4,6-diisopropyl-1,3-phenylene)bis(methylene)dicarbamimidothioate dihydrobromide] had a melting point of 208 to 210 °C.
Same read-out and setting: under `Cc1cc(CSC(=N)N)cc(CSC(=N)N)c1` (as salt: hydrobromid) [Example 3.3, (5-methyl-1,3-phenylene)bis(methylene)dicarbamimidothioate dihydrobromide] stands 240 to 241 °C.

In the next data set the target is T1, DMT1 (Homo sapiens, UniProt P49281).
T1 sequence (P49281 1-568): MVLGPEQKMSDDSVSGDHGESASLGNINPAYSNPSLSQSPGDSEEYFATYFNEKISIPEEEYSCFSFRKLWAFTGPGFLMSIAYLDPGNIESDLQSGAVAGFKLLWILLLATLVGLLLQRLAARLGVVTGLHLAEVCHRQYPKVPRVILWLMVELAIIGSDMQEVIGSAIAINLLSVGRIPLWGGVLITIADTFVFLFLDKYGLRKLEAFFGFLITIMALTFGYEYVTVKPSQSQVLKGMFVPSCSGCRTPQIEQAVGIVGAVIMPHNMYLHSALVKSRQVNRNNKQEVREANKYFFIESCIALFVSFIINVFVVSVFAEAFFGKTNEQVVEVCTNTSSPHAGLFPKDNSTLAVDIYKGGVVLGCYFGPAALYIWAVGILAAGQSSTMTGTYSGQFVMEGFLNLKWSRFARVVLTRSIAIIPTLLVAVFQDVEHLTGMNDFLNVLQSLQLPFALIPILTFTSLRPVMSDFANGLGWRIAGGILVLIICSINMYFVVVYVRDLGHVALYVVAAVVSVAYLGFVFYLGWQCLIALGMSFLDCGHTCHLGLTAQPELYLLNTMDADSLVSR
The data set is described as follows: DMT1 activity assay (IC50 activity level, Table 1). It counts as cell-based. The following applies: inhibition of DMT1. The text has this: This example discloses various in vitro assay for testing and profiling test agents against DMT1 stably expressed in cells of either an endogenous or recombinant origin. These assays can use stable cell lines overexpressing DMT1 or intestinal cells and intestinal tissue expressing endogenous DMT1. DMT1 function could also be assessed in other cell types that express DMT1. Of greatest relevance would be the erythrocytes (e.g. K562 cells) or hepatocytes (e.g. […]).
DMT1 function can be assessed in a number of ways, including monitoring fluorescence changes of an iron fluorophore (e.g. calcein), monitoring uptake of radiolabelled iron (^55Fe or ^59Fe) (Picard et al., J. Biol. Chem., 2000, 275(46):35738-45 and Wetli et al., Chem. Biol. 2006 September; 13(9):965-72), or by assessing the current or transport of iron and other metals into the cells or tissues using standard electrophysiological techniques (Gunshin et al., Nature, 1997, 388(6641):482-8.).
Variations of these assays involve alterations of incubation times, the iron status of the cells and tissues (which may be modulated by chemical chelators or by harvesting from iron deficient animals), the metal cation detected and the pH of the reaction can generally be made by conventional techniques known to those skilled in the art.
The Example numbers provided in Table 1 correspond to the Examples herein: […]
Turning to `Cc1cc(C)c(CNC(=N)N)c(C)c1CNC(=N)N` [Example 1, N-(3-guanidinomethyl-2,4,6-trimethylbenzyl)guanidine, bis(p-toluenesulfonate)], the half-maximal inhibitory concentration (IC50) was at least 1000 nM.
`Cc1cc(C)c(CSC(=N)N)c(C)c1CSC(=N)N` [Example 3, (2,4,6-trimethyl-1,3-phenylene)bis(methylene)dicarbamimidothioate dihydrochloride] gave an IC50 of 100 to 1000 nM.
On the same count and under the same terms, then `CC(C)c1cc(C(C)C)c(CSC(=N)N)cc1CSC(=N)N` [Example 3.1, (4,6-diisopropyl-1,3-phenylene)bis(methylene)dicarbamimidothioate dihydrobromide], with at least 1000 nM.
The same measure, in the same setting: under `N=C(N)SCc1cccc(CSC(=N)N)c1` [Example 3.2, 1,3-phenylenebis(methylene)dicarbamimidothioate dihydrobromide] stands at least 1000 nM.
Compound `Cc1cc(CSC(=N)N)cc(CSC(=N)N)c1` [Example 3.3, (5-methyl-1,3-phenylene)bis(methylene)dicarbamimidothioate dihydrobromide] yielded a half-maximal inhibitory concentration (IC50) of at least 1000 nM.
The same measure, in the same setting: under `CCOC(=O)c1cc(C(=O)OCC)c(CSC(=N)N)cc1CSC(=N)N` [Example 3.4, diethyl 4,6-bis(carbamimidoylthiomethyl)isophthalate dihydrobromide] stands at least 1000 nM.
The same measure, in the same setting: under `Cc1c(C)c(CSC(=N)N)c(C)c(CSC(=N)N)c1C` [Example 3.5, (2,4,5,6-tetramethyl-1,3-phenylene)bis(methylene)dicarbamimidothioate dihydrochloride] stands at least 1000 nM.
Same read-out and setting: then `N=C(N)SCc1c(Cl)c(Cl)c(Cl)c(CSC(=N)N)c1Cl` [Example 3.6, (2,4,5,6-tetrachloro-1,3-phenylene)bis(methylene)dicarbamimidothioate dihydrochloride], with at least 1000 nM; and `N=C(N)SCc1nnc(CSC(=N)N)n1N` [Example 3.7, (4-amino-4H-1,2,4-triazole-3,5-diyl)bis(methylene)dicarbamimidothioate dihydrochloride], with at least 1000 nM; and `N=C(N)SCc1n[nH]c(CSC(=N)N)n1` [Example 3.8, (1H-1,2,4-triazole-3,5-diyl)bis(methylene)dicarbamimidothiodate dihydrochloride], with at least 1000 nM.
In turn, `N=C(N)SCc1ccc(CSC(=N)N)s1` [Example 3.9, thiophene-2,5-diylbis(methylene)dicarbamimidothioate dihydrochloride] showed a half-inhibitory concentration (IC50) of at least 1000 nM.
`N=C(N)SCc1sc(CSC(=N)N)c(-c2ccccc2)c1-c1ccccc1` [Example 3.10, (3,4-diphenylthiophene-2,5-diyl)bis(methylene)dicarbamimidothioate dihydrobromide]: the 50% inhibitory concentration (IC50) is at least 1000 nM.
The same measure, in the same setting: under `Cc1c(CSC(=N)N)c(C)c(CSC(=N)N)c(C)c1CSC(=N)N` [Example 3.11, (2,4,6-trimethylbenzene-1,3,5-triyl)tris(methylene) tricarbamimidothioate trihydrobromide] stands at least 1000 nM; under `N=C(N)SCc1cccc(CSC(=N)N)n1` [Example 3.12, pyridine-2,6-diylbis(methylene)dicarbamimidothioate dihydrobromide], at least 1000 nM.
Compound `N=C(N)SCc1cccc2cccc(CSC(=N)N)c12` [Example 3.13, naphthalene-1,8-diylbis(methylene)dicarbamimidothioate dihydrobromide] registered an IC50 of at least 1000 nM.
Same read-out and setting: under `N#Cc1c(CSC(=N)N)cccc1CSC(=N)N` [Example 3.14, (2-cyano-1,3-phenylene)bis(methylene)dicarbamimidothioate dihydrobromide] stands at least 1000 nM; under `N=C(N)SCc1ccccc1CSC(=N)N` [Example 3.15, (1,2-phenylene)bis(methylene)dicarbamimidothioate dihydrobromide], at least 1000 nM.
As to `Cc1cc(C)c(CSC(=N)N)cc1CSC(=N)N` [Example 3.16, (4,6-dimethyl-1,3-phenylene)bis(methylene)dicarbamimidothioate dihydrochloride], the IC50 was 100 to 1000 nM.
The same measure, in the same setting: then `Cc1c(CSC(=N)N)cc(CSC(=N)N)c(C)c1Br` [Example 3.17, (5-bromo-4,6-dimethyl-1,3-phenylene)bis(methylene) dicarbamimidothioate dihydrochloride], with at least 1000 nM; and `COc1c(CSC(=N)N)cc(C)cc1CSC(=N)N` [Example 3.18, (2-methoxy-5-methyl-1,3-phenylene)bis(methylene)dicarbamimidothioate dihydrobromide], with at least 1000 nM.
In turn, `Cc1c(O)c(C)c(CSC(=N)N)c(C)c1CSC(=N)N` [Example 3.19, (5-hydroxy-2,4,6-trimethyl-1,3-phenylene)bis(methylene) dicarbamimidothioate dihydrochloride] returned a concentration for half-maximal inhibition (IC50) of 100 to 1000 nM.
The same measure, in the same setting: then `N=C(N)SCc1ccc2ccccc2c1CSC(=N)N` [Example 3.20, naphthalene-1,2-diylbis(methylene)dicarbamimidothioate dihydrobromide], with at least 1000 nM; and `Cc1c(CSC(=N)N)cccc1CSC(=N)N` [Example 3.21, (2-methyl-1,3-phenylene)bis(methylene)dicarbamimidothioate dihydrobromide], with 100 to 1000 nM; and `Cc1c(C)c(C)c(CSC(=N)N)c(CSC(=N)N)c1C` [Example 3.22, (3,4,5,6-tetramethyl-1,2-phenylene)bis(methylene)dicarbamimidothioate dihydrobromide], with at least 1000 nM.
The same measure, in the same setting: then `N=C(N)Sc1cccc(SC(=N)N)c1` [Example 5, 1,3-phenylene dicarbamimidothioate dihydroiodide], with at least 1000 nM.
The same measure, in the same setting: under `CC(C)(SC(=N)N)c1cccc(C(C)(C)SC(=N)N)c1` [Example 6, 2-{1-[3-(1-carbamimidoylsulfanyl-1-methylethyl)phenyl]-1-methylethyl}-isothiourea dihydrobromide] stands at least 1000 nM; under `Cc1cc(C)c(C(C)SC(=N)N)c(C)c1C(C)SC(=N)N` (stereo not drawn) [Example 6.1, 2-{1-[3-(1-carbamimidoylsulfanylethyl)-2,4,6-trimethylphenyl]ethyl}-isothiourea dihydrobromide], 100 to 1000 nM; under `Cc1cc(CSC(=N)N)c(O)c(CSC(=N)N)c1` [Example 6.2, (2-hydroxy-5-methyl-1,3-phenylene)bis(methylene)dicarbamimidothioate dihydrobromide], at least 1000 nM.
Compound `Cc1c(CSC(=N)N)sc(CSC(=N)N)c1C` [Example 6.3, (3,4-dimethylthiophene-2,5-diyl)bis(methylene)dicarbamimidothioate dihydrobromide] had a half-inhibitory concentration (IC50) of at least 1000 nM.
With `Cc1c(CSC(=N)N)sc2sc(CSC(=N)N)c(C)c12` [Example 6.4, (3,4-dimethylthieno[2,3-b]thiophene-2,5-diyl)bis(methylene)dicarbamimidothioate dihydrobromide], the IC50 was at least 1000 nM.
Same read-out and setting: under `COc1ccc(CSC(=N)N)cc1CSC(=N)N` [Example 6.5, (4-methoxy-1,3-phenylene)bis(methylene)dicarbamimidothioate dihydrobromide] stands at least 1000 nM; under `COc1cc(CSC(=N)N)cc(CSC(=N)N)c1` [Example 6.6, (5-methoxy-1,3-phenylene)bis(methylene)dicarbamimidothioate dihydrobromide], at least 1000 nM.
Take `Cc1nc(C)c(CSC(=N)N)c(C)c1CSC(=N)N` [Example 8, (2,4,6-trimethylpyridine-3,5-diyl)bis(methylene)dicarbamimidothioate dihydrochloride]: the IC50 is at least 1000 nM.
Still for that read-out and setting: under `N=C(N)SC(=O)c1sc(C(=O)SC(=N)N)c(Cl)c1Cl` [Example 9, 2-(5-carbamimidoylsulfanecarbonyl-3,4-dichlorothiophene-2-carbonyl)isothiourea dihydrochloride] stands at least 1000 nM.

(Values after patent US20100240713A1, “AROMATIC AND HETEROAROMATIC COMPOUNDS USEFUL IN TREATING IRON DISORDERS” (XENON PHARMACEUTICALS INC., priority 2007, published 2010).)
